Values quoted from earlier work, collected in patent US20230106535A1, “TECHNIQUES FOR DETERMINING CALCIMIMETIC DRUG ACTIVITY” (Fresenius Medical Care Holdings, Inc., priority 2021, published 2023).

Key:
[1] = healthy subjects; plasma concentration declines tri-exponentially
[2] = not given; remark: listed apart in the source
[3] = test system: iPTH, serum ionized Ca, phosphate
[4] = test system: corrected serum calcium; settings: clinical studies
[5] = test system: PTH; settings: n=343, Source E
[6] = long term studies, within 12 weeks

CC(=O)N[C@H](CSSC[C@H](N)C(=O)O)C(=O)N[C@H](C)C(=O)N[C@H](CCCNC(=N)N)C(=O)N[C@H](CCCNC(=N)N)C(=O)N[C@H](CCCNC(=N)N)C(=O)N[C@H](C)C(=O)N[C@H](CCCNC(=N)N)C(N)=O [etelcalcetide]
terminal half-life [1]: around 20 hours | time to steady state of etelcalcetide plasma concentration (clinical studies, multiple 2.5 mg or 5 mg administrations after every HD session): about 4 weeks | biotransformation resulting in (reversible) formation of SAPC (human, in vivo): roughly 60% | etelcalcetide undergoing biotransformation (human, in vivo): approximately 90% | half-life (patients on intermittent HD): ~50 days | rate of conversion from SAPC to etelcalcetide relative to conversion of etelcalcetide to SAPC ([2]; faster): roughly 16 fold | rate of conversion from SAPC to etelcalcetide relative to dialytic rate constant ([2]; slower): approximately 200 fold | etelcalcetide dose cleared by HD ([2]; within 15 minutes, almost all cleared as intact etelcalcetide): approximately 70% | highest changes in Ca concentration ([3]; HD patients, after a 60 mg administration): around 15% | time to decline of iCa concentration ([3]; HD patients, after administration, dose-dependent): ≤ 10 h | time to lowering of intact PTH (iPTH) ([3]; after a single dose): ≤ 30 min | time to iCa plateau ([3]; after a single dose administration): 56 h | iCa decline before reaching a plateau [3, 6]: around 10% | phosphate decline before reaching a plateau [3, 6]: ~5% | time to plateau in iPTH ([3]; post single dose administration): 1 h | time to decrease in phosphate ([3]; post-administration): about 4 hours | time after which iCa gradually decreases ([3]; single dose): about 18 hours | time phosphate remains low ([3]; single dose): about 4 days | time serum ionized Ca (iCa) remains stable ([3]; single dose): 8 h | patients with at least one corrected calcium value below 8.3 mg/dl [4]: 79% | patients with at least one corrected serum calcium value below 7 mg/dl [4]: around 7.6%

C[C@@H](NCCCc1cccc(C(F)(F)F)c1)c1cccc2ccccc12 [cinacalcet]
patients with PTH reduction >30% from baseline, clinical results [5]: 57.7% | patients with PTH reduction >50% from baseline, clinical results [5]: 40.2%
